Data from patent US9751919B2, “Antimicrobial compositions comprising a hyaluronic acid binding peptide and a β-lactam antibiotic” (priority 2012, dated 2017).
Where “and” joins values, the source holds several entries; their conditions need not be identical. Equal values may be shown once. Read-outs that look alike come from different tables or passages of the source. Marks after values point to notes of the source that are not given here.

How the values were obtained:
CA-MRSA = assay: MIC (CLSI broth dilution), agent alone; assay type: cell-based, Staphylococcus aureus
Procedure, shortened: (§1)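 S. aureus isolates were tested by CLSI 2005 broth macrodilution in doubling dilutions of cation-adjusted Mueller-Hinton broth. Inoculum was about 5×10^5 CFU/ml, with 24 h incubation in ambient air. MIC was the lowest concentration inhibiting visible growth, with an MSSA and ATCC QC strains as controls.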

HA-MRSA = assay: MIC (CLSI broth dilution), agent alone; assay type: cell-based, Staphylococcus aureus
Procedure, shortened: as §1

MSSA = assay: MIC (CLSI broth dilution), agent alone; assay type: cell-based, Staphylococcus aureus; conditions: agent alone
Procedure, shortened: as §1

S. pneumoniae = assay: Checkerboard assay (FIC index); assay type: cell-based, Streptococcus pneumoniae; conditions: antibiotic combined with PEP35;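 note: each agent diluted from 0.03 to 4 times its MIC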
Method: (§2) The checkerboard assays were carried out as described by Eliopoulos and Moellering (Chapter 9) in Antibiotic in Laboratory Medicine, Lorian Ed. 1996 as well as Bonapace et al. Diagnostic Microbiology and Infectious Diseases 2002; 44:363-366 and Bonapace et al. Diagnostic Microbiology and Infectious Diseases 2000; 38:43-50. In brief, checkerboard assays were performed in 96 well microtitre trays using an 8-by-8 well configuration. […] 96-well custom designed microtitre plates contained 100 ul/well of cation adjusted Mueller-Hinton broth (eg. for Enterobacteriaceae) with or without lysed horse blood (2-5% V/V) [eg. for S. pneumoniae] and were inoculated to achieve a final concentration of approximately 5×10^5 CFU/ml and incubated in ambient air for 24 hours prior to reading. Colony counts were performed periodically to confirm inocula. Quality control was performed every two weeks using a variety of ATCC QC organisms including; S. pneumoniae 49619, S. aureus 29213, E. faecalis 29212, E. coli 25922 and P. aeruginosa 27853. For all antimicrobials as well as PEP35, CLSI criteria was used.
(§3) The fractional inhibitory concentration index (FIC index) was used to interpret synergy, antagonism or additivity/indifference. FIC index=FIC of drug A+FIC of drug B where:
(§4) The FIC of drug A and drug B is calculated as follows, FIC drug A=MIC of drug A in combination/MIC of drug A alone and FIC of drug B=MIC of drug B in combination/MIC of drug B alone. Synergy is defined as FIC index ≦0.5, additivity/indifference FIC >0.5-4 and antagonism FIC index >4.
(§5) Antimicrobials used included PEP35, cefazolin, ceftriaxone, vancomycin, linezolid, tigecycline and daptomycin versus Gram-positive cocci and PEP35, gentamicin, levofloxacin, piperacillin/tazobactam, meropenem and colistin (Polymyxin E) versus Gram-negative bacilli. These agents were obtained as laboratory grade powders from their respective manufacturers. Stock solutions were prepared and dilutions made as described by the Clinical Laboratory Standards Institute (2005 CLSI).
(§6) Organisms included Gram-positive cocci (2 strains of each): Methicillin-susceptible Staphylococcus aureus (MSSA), community-associated (CA) and healthcare-associated (HA) methicillin-resistant Staphylococcus aureus (MRSA), vancomycin-intermediate Staphylococcus aureus (VISA), vancomycin-resistant Staphylococcus aureus (VRSA), methicillin-resistant Staphylococcus epidermidis (MRSE), Streptococcus pyogenes, Streptococcus agalactiae, Streptococcus pneumoniae, Enterococcus faecalis, Enterococcus faecium and vancomycin-resistant enterococcus (VRE). Gram-negative bacilli tested (2 strains of each) included: E. coli, Pseudomonas aeruginosa, Klebsiella pneumoniae, K. oxytoca, Enterobacter cloacae, P. mirabilis and Stenotrophomonas maltophilia. MIC testing, following two subcultures from frozen stock were determined by the CLSI 2005 approved broth microdilution method.

S. agalactiae = assay: Checkerboard assay (FIC index); assay type: cell-based, Streptococcus agalactiae; conditions: antibiotic combined with PEP35
Method: as §2, §3, §4, §5, §6

E. Faecium = assay: Checkerboard assay (FIC index); assay type: cell-based, Enterococcus faecium; conditions: antibiotic combined with PEP35
Method: as §2, §3, §4, §5, §6

VRE = assay: Checkerboard assay (FIC index); assay type: cell-based, Enterococcus faecium; conditions: antibiotic combined with PEP35
Method: as §2, §3, §4, §5, §6

[1] = CA-MRSA 69615 (USA400), agent alone
[2] = CA-MRSA 69615 (USA400)^a row, antibiotic alone, in µg/mL
[3] = CA-MRSA 69615 (USA400)^b row, antibiotic alone, in µg/mL
[4] = HA-MRSA 70798 (USA100/800), agent alone, in µg/mL
[5] = HA-MRSA 77090 (USA100/800), agent alone
[6] = HA-MRSA 77090 (USA100/800)^a row, antibiotic alone, in µg/mL
[7] = HA-MRSA 77090 (USA100/800)^b row, antibiotic alone, in µg/mL
[8] = HA-MRSA 77098 (USA100/800), agent alone
[9] = S. pneumoniae-Pen I 72302 (MHB)
[10] = S. pneumoniae-Pen I 78663 (MHB)
[11] = S. pneumoniae-Pen R 76065 (MHB)
[12] = S. pneumoniae-Pen R 78519 (MHB)
[13] = S. pneumoniae-Pen S 70400 (MHB)
[14] = S. pneumoniae-Pen S 71263 (MHB)

Structure (SMILES)	MIC (CA-MRSA; [1])	MIC (CA-MRSA; [2])	MIC (CA-MRSA; [3])	MIC (HA-MRSA; [4])	MIC (HA-MRSA; [5])	MIC (HA-MRSA; [6])	MIC (HA-MRSA; [7])	MIC (MSSA; MSSA 79333)	Avg ΣFIC (range) (S. pneumoniae; [9])	Avg ΣFIC (range) (S. pneumoniae; [10])	Avg ΣFIC (range) (S. pneumoniae; [11])	Avg ΣFIC (range) (S. pneumoniae; [12])	Avg ΣFIC (range) (S. pneumoniae; [13])	Avg ΣFIC (range) (S. pneumoniae; [14])	Avg ΣFIC (range) (S. agalactiae; S. agalactiae 80870 (MHB))	Avg ΣFIC (range) (S. agalactiae; S. agalactiae 81262 (MHB))	Avg ΣFIC (range) (E. Faecium; E. Faecium 78024)	Avg ΣFIC (range) (E. Faecium; E. Faecium 78352)	Avg ΣFIC (range) (VRE; VRE 70769)	Avg ΣFIC (range) (VRE; VRE 77872)	other results
Cc1nnc(SCC2=C(C(=O)O)N3C(=O)[C@@H](NC(=O)Cn4cnnn4)[C@H]3SC2)s1 [Cefazolin]	64 and 64/64	64	64	512	128 and 256/256	128	128	1 and 0.5/0.5	1.1 (1.0-1.25)	1.1 (1.0-1.25)	0.70 (0.53-1.06)	0.97 (0.75-1.12)	0.68 (0.515-1.06)	0.99 (0.62-1.25)	0.92 (0.56-1.25)	1.10 (1-1.25)	1.16 (1.015-1.5)	1.10 (1-1.25)	>1*	>1*	MICs alone, range (CA-MRSA; 50 CA-MRSA strains): 2 to 256 µg/mL; strains resistant to the antibiotic (CA-MRSA; 50 CA-MRSA strains): 45 of the 50 strains; MIC (CA-MRSA; CA-MRSA 70857 (USA400), agent alone): 32 and 32/32; MIC (CA-MRSA; Staphylococcus aureus, MRSA / USA400): 256 µg/mL; MICs alone, range (HA-MRSA; 50 HA-MRSA strains): 2 to 512 µg/mL; strains resistant to the antibiotic (HA-MRSA; 50 HA-MRSA strains): 47 of the 50 strains; MIC (HA-MRSA; HA-MRSA 77090 (USA100/800), agent alone, in µg/mL): 128 and 64; MIC (HA-MRSA; [8]): 512/512; MIC (HA-MRSA; Staphylococcus aureus, MRSA / USA200, HA-MRSA (CMRSA4/USA200), antibiotic alone, read-out: Cefazolin (MIC)): 256 µg/mL; MIC (HA-MRSA; Staphylococcus aureus, MRSA / USA500, HA-MRSA (CMRSA5/USA500), antibiotic alone, read-out: Cefazolin (MIC)): 2 µg/mL; MIC (HA-MRSA; Staphylococcus aureus, MRSA / USA600, HA-MRSA (CMRSA1/USA600), antibiotic alone, read-out: Cefazolin (MIC)): 128 µg/mL; MIC (HA-MRSA; Staphylococcus aureus, MRSA, HA-MRSA (CMRSA3/6), antibiotic alone, read-out: Cefazolin (MIC)): 256 µg/mL; MIC (HA-MRSA; Staphylococcus aureus, MRSA, HA-MRSA (CMRSA6), antibiotic alone, read-out: Cefazolin (MIC)): 256 µg/mL; MIC (HA-MRSA; Staphylococcus aureus, MRSA, HA-MRSA (CMRSA8), antibiotic alone, read-out: Cefazolin (MIC)): 64 µg/mL; MIC (MSSA; MSSA 79333, listed as CEFAZOLIN): 0.5/0.5; MIC (MSSA; S. aureus control): 0.5/0.5 ug/ml; MIC (MSSA; Staphylococcus aureus, MSSA, S. aureus control, read-out: MIC): 0.5 µg/mL
CO/N=C(\C(=O)N[C@@H]1C(=O)N2C(C(=O)O)=C(CSc3nc(=O)c(=O)[nH]n3C)CS[C@H]12)c1csc(N)n1 [Ceftriaxone]	–	512	256	2048	512 and 1024/1024	512	512	8 and 4/4	1.05 (0.75-1.25)	1.1 (1.0-1.25)	1.21 (1.03-1.5)	1.05 (0.75-1.25)	0.99 (0.62-1.06)	0.91 (0.62-1.12)	0.99 (0.53-1.25)	1.05 (0.75-1.25)	>1*	0.99 (0.62-1.25)	>1*	>1*	MIC (CA-MRSA; CA-MRSA 69615 (USA400), agent alone, in µg/mL): 256 and 512; MIC (CA-MRSA; CA-MRSA 69615 (USA400), agent alone, listed as CEFTRIAXONE, in µg/mL): 128 and 64; MIC (CA-MRSA; CA-MRSA 70857 (USA400), agent alone, in µg/mL): 256 and 128; MIC (HA-MRSA; [8]): 4096/4096; MIC (MSSA; MSSA 79333, listed as CEFTRIAXONE): 4/4
CN[C@H](CC(C)C)C(=O)N[C@H]1C(=O)N[C@@H](CC(N)=O)C(=O)N[C@H]2C(=O)N[C@H]3C(=O)N[C@H](C(=O)N[C@H](C(=O)O)c4cc(O)cc(O)c4-c4cc3ccc4O)[C@H](O)c3ccc(c(Cl)c3)Oc3cc2cc(c3O[C@@H]2O[C@H](CO)[C@@H](O)[C@H](O)[C@H]2O[C@H]2C[C@](C)(N)[C@H](O)[C@H](C)O2)Oc2ccc(cc2Cl)[C@H]1O [Vancomycin]	1/1	–	–	–	1/1	–	–	1 and 0.5	1.26 (1.06-1.5)	1.1 (1.0-1.25)	0.86 (0.53-1.25)	1.2 (1.015-1.5)	0.91 (0.56-1.25)	1.05 (0.75-1.25)	1.05 (0.75-1.25)	1.1 (1.0-1.25)	1.19 (1.03-1.5)	1.59 (1.06-2.5)	0.92 (0.506-1.25)	1.19 (1.03-1.5)	–
